Test results published in US20150031572A1, “MEANS AND METHODS FOR ASSESSING NEURONAL TOXICITY” (priority 2012, published 2015).

Assay: Plasma metabolite profiling (GC-MS, LC-MS, SPE-LC-MS) of rats dosed once daily over 28 days; treatment ratios versus untreated control
Assay type: in vivo, rat
Settings: male rats; for 5-Oxoproline, plasma metabolite ratio versus control / Alanine, plasma metabolite ratio versus control / Arginine (second line of the table), plasma metabolite ratio versus control / Arginine, plasma metabolite ratio versus control / Citrulline, plasma metabolite ratio versus control / Glutamine, plasma metabolite ratio versus control / Proline, plasma metabolite ratio versus control / Tyrosine, plasma metabolite ratio versus control: high dose; for Creatinine, ratio versus control: plasma, Table 12a
Method in brief: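 Male and female rats (5/sex/group) dosed once daily for 28 days; fasted anaesthetized animals bled retro-orbitally (EDTA plasma) on days 7, 14, 28, stored −80 °C under N2. Polar and lipid fractions profiled by GC-MS (derivatized), LC-MS/MRM; steroids by online SPE-LC-MS. Pool-normalized data; treatment ratios vs sex-matched controls, Welch test p-values.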

Compound: CC1(C)C(C(Cl)Cl)C2(Cl)C(Cl)C(Cl)C1(Cl)C2(Cl)Cl (stereo not drawn) [Toxaphene]
- 5-Oxoproline, plasma metabolite ratio versus control (day 7 (m7)): 0.98
- Alanine, plasma metabolite ratio versus control (day 7 (m7)): 0.82
- Arginine (second line of the table), plasma metabolite ratio versus control (day 7 (m7)): 0.87
- Arginine, plasma metabolite ratio versus control (day 7 (m7)): 0.96
- Citrulline, plasma metabolite ratio versus control (day 7 (m7)): 0.87
- Glutamine, plasma metabolite ratio versus control (day 7 (m7)): 0.89
- Proline, plasma metabolite ratio versus control (day 7 (m7)): 0.82
- Tyrosine, plasma metabolite ratio versus control (day 7 (m7)): 0.86
- 5-Oxoproline, plasma metabolite ratio versus control (day 14 (m14)): 0.87
- Alanine, plasma metabolite ratio versus control (day 14 (m14)): 0.87
- Arginine (second line of the table), plasma metabolite ratio versus control (day 14 (m14)): 0.79
- Arginine, plasma metabolite ratio versus control (day 14 (m14)): 0.78
- Citrulline, plasma metabolite ratio versus control (day 14 (m14)): 1.07
- Glutamine, plasma metabolite ratio versus control (day 14 (m14)): 0.77
- Proline, plasma metabolite ratio versus control (day 14 (m14)): 0.86
- Tyrosine, plasma metabolite ratio versus control (day 14 (m14)): 0.87
- 5-Oxoproline, plasma metabolite ratio versus control (day 28 (m28)): 0.81
- Alanine, plasma metabolite ratio versus control (day 28 (m28)): 0.83
- Arginine (second line of the table), plasma metabolite ratio versus control (day 28 (m28)): 0.84
- Arginine, plasma metabolite ratio versus control (day 28 (m28)): 0.77
- Citrulline, plasma metabolite ratio versus control (day 28 (m28)): 1.10
- Glutamine, plasma metabolite ratio versus control (day 28 (m28)): 0.81
- Proline, plasma metabolite ratio versus control (day 28 (m28)): 0.88
- Tyrosine, plasma metabolite ratio versus control (day 28 (m28)): 0.79
- Creatinine, ratio versus control (day 7, high dose): 1.41
- Creatinine, ratio versus control (day 14, high dose): 1.45
- Creatinine, ratio versus control (day 28, high dose): 1.37
